Laboratory results published in US5374764A, “5-aminosulfonanilide compounds” (Taisho Pharmaceutical Co., Ltd., priority 1991, dated 1994).

system: adjuvant arthritis; experiment: Test of action on adjuvant arthritis (therapy); format: in vivo, Lewis strain rats; details: Rattus norvegicus, 96 h; oral, 1 mg/kg once a day for 4 days, in 5% gum arabic; Lewis rats with fully developed adjuvant arthritis; foot volume on day after final administration; read-out: Edema inhibition ratio (%)

First: CS(=O)(=O)Nc1cc(NC=O)c([N+](=O)[O-])cc1OC1CCCCC1 [Test drug 2]
Second: CC(=O)Nc1cc(NS(C)(=O)=O)c(OC2CCCCC2)cc1[N+](=O)[O-] [Test drug 3]
The inhibition in vivo at 1 mg/kg of the first is lower: 43.1% for the first, 45.7% for the second.

Compared with `CCCOC(=O)C(=O)Nc1cc(NS(C)(=O)=O)c(OC2CCCCC2)cc1[N+](=O)[O-]` [Test drug 7], `CCOC(=O)C(=O)Nc1cc(NS(C)(=O)=O)c(OC2CCCCC2)cc1[N+](=O)[O-]` [Test drug 6] is higher in inhibition in vivo at 1 mg/kg: 37.2% for the first, 50.9% for the second.

Going from `CCCC(=O)Nc1cc(NS(C)(=O)=O)c(OC2CCCCC2)cc1[N+](=O)[O-]` [Test drug 5, N-[5-(n-butyrylamino)-2-cyclohexyloxy-4-nitrophenyl)methanesulfonamide] to `CCCCC(=O)Nc1cc(NS(C)(=O)=O)c(OC2CCCCC2)cc1[N+](=O)[O-]` [Test drug 1, N-[2-cyclohexyloxy-4-nitro-5-(n-valerylamino)phenyl]methanesulfonamide], the inhibition in vivo at 1 mg/kg rises from 44.2% to 46.5%.

Compared with `CCC(=O)Nc1cc(NS(C)(=O)=O)c(OC2CCCCC2)cc1[N+](=O)[O-]` [Test drug 4], `COC(=O)CC(=O)Nc1cc(NS(C)(=O)=O)c(OC2CCCCC2)cc1[N+](=O)[O-]` [Test drug 8] is lower in inhibition in vivo at 1 mg/kg: 48.5% for the first, 38% for the second.

Compared with `CS(=O)(=O)Nc1cc(N)c([N+](=O)[O-])cc1OC1CCCCC1` [Test drug 10, N-(5-amino-2-cyclohexyloxy-4-nitrophenyl)methanesulfonamide], `CS(=O)(=O)Nc1ccc([N+](=O)[O-])cc1OC1CCCCC1` [compound 11] is lower in inhibition in vivo at 1 mg/kg: 46.7% for the first, 19.7% for the second.

`CCOC(=O)CCC(=O)Nc1cc(NS(C)(=O)=O)c(OC2CCCCC2)cc1[N+](=O)[O-]` [Test drug 9] gave an inhibition in vivo at 1 mg/kg of 52.8%.
